Where two headings read alike, the source gives them in different places.
Legend:
tumour cell line = settings: cited from earlier work
[1] = system: myocardial or liver cells; test: toxicity, cell penetration and 31P NMR pH measurement in myocardial or liver cells; assay type: cell-based
From the text: The compounds of formulae (II.1) and (II.2) are on the whole particuarly non-toxic and penetrate into myocardial or liver cells (in sufficient amount to be observed but in a sufficiently small amount to remain non-toxic), thus allowing a measurement of the pH values of intracellular and extracellular media.

physchem [2] = test: physchem
physchem [3] = assay type: physicochemical; settings: 37° C., 5 mM solution in phosphate buffer, 400 MHz NMR, from titration curve
Method: The results obtained allowed titration curves to be plotted.
Each measurement was taken at 37° C. using a 5 mM solution of the test compound in a phosphate buffer on a 400 MHz NMR spectroscopy machine.
The variation in the phosphorus-31 chemical shift was studied as a function of the pH: the measurements were taken at 22° C., or 37° C. respectively, on a 400 MHz NMR machine using 5 mM solutions of the test compound in a phosphate buffer.

## O=CC[C@@H](O)[C@H](O)[C@H](O)COP(=O)(O)O [2-deoxyglucose 6-phosphate, 2-Deoxyglucose 6-phosphate]
Tumour cell line
  metabolism: not metabolized
  toxicity: toxic to the cell

## CCOP(=O)(OCC)C1(C)CCCN1 (centres unmarked) [Compound 1, 2-methyl-2-diethoxyphosphorylpyrrolidine]
[1]; in the course of ischaemia, cytosolic medium
  variations in the phosphorus chemical shift as a function of intracellular acidosis versus intracellular Pi: fully correlated
[1]; liver, very acidic (pH 5) vesicles
  pH measurements in liver compartments (extracellular, cytosolic, intravesicular medium): allows three measurements at the same time

## CCOP(=O)(OCC)C1(P(=O)(OCC)OCC)CCCN1 [Compound 2, 2,2-bis(diethoxyphosphoryl) pyrrolidine]
Physchem [2]
  pKa: 3.5
Physchem [3]
  pKa: 3.47

## CC(C)OP(=O)(OC(C)C)C1(P(=O)(OC(C)C)OC(C)C)CCCN1 [Compound 3, 2,2-bis(diisopropoxyphosphoryl) pyrrolidine]
Physchem [3]
  pKa: 3.9

## CCOP(=O)(OCC)C1(C)CCC(C)(P(=O)(OCC)OCC)N1 (centres unmarked) [Compound 4, 2,5-bis(diethoxyphosphoryl)-2,5-dimethylpyrrolidine]
Physchem [3]
  pKa: 2.45

Source: US6528656B1, “Linear or cyclic aminophosphonates as pH markers in phosphorus 31 NMR spectroscopy” (Centre National de la Recherche Scientifique (CNRS), priority 1998, dated 2003)
